From patent publication US10189841B2, “Purinones as ubiquitin-specific protease 1 inhibitors” (Forma Therapeutics, Inc., priority 2015, dated 2019) come the findings set out here.

This assay has as its target USP1 (construct USP1 (I-785, GG670, 671AA)/UAF1 (I-677)-Flag) (Homo sapiens (Human), UniProt O94782, G670A/G671A). Description: Ubiquitin-Rhodamine 110 assay for USP1 activity. It counts as biochemical. As to conditions: USP1/UAF1 25 pM, Ub-Rh110 25 nM, 30 min preincubation. Put shortly:
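Two formats with the USP1/UAF1 complex and 25 nM ubiquitin-rhodamine 110 in pH 8.0 Tris buffer with calcium, glutathione and detergent. Single-point screening used 10 µM, 100 pM enzyme and 45 min. Inhibition was set against no-enzyme and DMSO wells.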

Sequence of USP1 (construct USP1 (I-785, GG670, 671AA)/UAF1 (I-677)-Flag) (O94782 whole entry G670A/G671A): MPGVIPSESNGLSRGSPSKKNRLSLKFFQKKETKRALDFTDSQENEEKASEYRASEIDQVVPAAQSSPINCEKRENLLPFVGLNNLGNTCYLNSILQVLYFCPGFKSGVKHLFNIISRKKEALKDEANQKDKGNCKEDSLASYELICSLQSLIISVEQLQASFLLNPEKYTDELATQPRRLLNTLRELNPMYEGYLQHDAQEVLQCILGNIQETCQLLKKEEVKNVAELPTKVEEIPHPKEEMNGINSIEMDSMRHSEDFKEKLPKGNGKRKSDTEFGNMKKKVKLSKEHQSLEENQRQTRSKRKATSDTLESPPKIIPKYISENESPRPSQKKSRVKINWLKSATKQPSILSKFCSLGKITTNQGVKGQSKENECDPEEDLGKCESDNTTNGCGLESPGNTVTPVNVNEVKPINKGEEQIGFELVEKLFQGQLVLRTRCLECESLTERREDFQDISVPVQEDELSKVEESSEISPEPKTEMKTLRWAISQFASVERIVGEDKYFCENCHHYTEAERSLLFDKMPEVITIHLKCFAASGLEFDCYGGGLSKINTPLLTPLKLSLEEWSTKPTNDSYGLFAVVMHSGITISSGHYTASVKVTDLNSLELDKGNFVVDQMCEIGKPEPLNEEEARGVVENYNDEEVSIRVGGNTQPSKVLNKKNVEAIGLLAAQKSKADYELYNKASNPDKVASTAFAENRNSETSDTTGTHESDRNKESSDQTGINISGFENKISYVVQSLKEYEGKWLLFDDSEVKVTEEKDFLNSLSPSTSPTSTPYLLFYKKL
Sequence of USP1 (construct USP1 (I-785, GG670, 671AA)/UAF1 (I-677)-Flag) (Q8TAF3 whole entry partner): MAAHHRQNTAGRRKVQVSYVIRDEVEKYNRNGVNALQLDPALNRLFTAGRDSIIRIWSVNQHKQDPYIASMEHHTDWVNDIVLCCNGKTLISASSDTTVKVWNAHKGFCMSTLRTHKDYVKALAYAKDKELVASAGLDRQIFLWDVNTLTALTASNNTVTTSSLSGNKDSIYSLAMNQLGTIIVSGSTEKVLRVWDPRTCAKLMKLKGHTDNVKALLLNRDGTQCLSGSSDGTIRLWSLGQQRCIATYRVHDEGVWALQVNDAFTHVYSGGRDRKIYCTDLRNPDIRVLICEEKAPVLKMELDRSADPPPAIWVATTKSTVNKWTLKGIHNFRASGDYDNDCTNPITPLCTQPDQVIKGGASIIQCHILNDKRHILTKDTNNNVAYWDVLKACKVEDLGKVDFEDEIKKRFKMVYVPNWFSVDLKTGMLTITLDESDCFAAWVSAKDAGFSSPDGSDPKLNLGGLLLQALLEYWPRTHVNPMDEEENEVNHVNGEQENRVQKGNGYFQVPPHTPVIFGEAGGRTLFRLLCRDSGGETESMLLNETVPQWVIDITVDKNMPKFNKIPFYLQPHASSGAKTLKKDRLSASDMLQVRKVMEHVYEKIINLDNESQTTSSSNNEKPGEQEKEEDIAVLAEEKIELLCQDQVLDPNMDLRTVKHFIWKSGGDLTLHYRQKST

Broadly, the IC50 is the concentration needed to halve the response being measured. The low end stands for greater potency in that assay, the high end for weaker potency in that assay. In turn, `CC(=O)Nc1cn(C)c(-c2ccc(Cn3c(=O)[nH]c4cnc(-c5ccccc5C(C)C)nc43)cc2)n1` [Compound I-538, N-(2-(4-((2-(2-isopropylphenyl)-8-oxo-7,8-dihydro-9H-purin-9-yl)methyl)phenyl)-1-methyl-1H-imidazol-4-yl)acetamide] showed an IC50 of 0.05 to 0.2 µM.
The compound `Cc1cc(C)n(-c2cnc(Cn3c(=O)[nH]c4cnc(-c5ccccc5C(C)C)nc43)nc2)n1` [Compound I-511, 9-((5-(3,5-Dimethyl-1H-pyrazol-1-yl)pyrimidin-2-yl)methyl)-2-(2-isopropylphenyl)-7,9-dihydro-8H-purin-8-one] displayed an IC50 of 0.2 to 2 µM.
The figure for `CC(C)c1ncccc1-c1ncc2[nH]c(=O)n([C@@H](C)c3ccc(-n4cccn4)cc3)c2n1` [Compound I-13, (S)-9-(1-(4-(1H-pyrazol-1-yl)phenyl)ethyl)-2-(2-isopropylpyridin-3-yl)-7,9-dihydro-8H-purin-8-one] is 0.2 to 2 µM; for `CC(C)c1ncccc1-c1ncc2[nH]c(=O)n(Cc3ccc(-c4nc(C(F)(F)F)cn4C4CN(C)C4)cc3)c2n1` [Compound I-438, 2-(2-Isopropylpyridin-3-yl)-9-(4-(1-(1-methylazetidin-3-yl)-4-(trifluoromethyl)-1H-imidazol-2-yl)benzyl)-7,9-dihydro-8H-purin-8-one] it is less than 0.05 µM; for `Cc1ccnn1-c1ccc(Cn2c(=O)[nH]c3cnc(-c4ccccc4C(C)C)nc32)cc1` [Compound I-184, 2-(2-isopropylphenyl)-9-(4-(5-methyl-1H-pyrazol-1-yl)benzyl)-7,9-dihydro-8H-purin-8-one] it is less than 0.05 µM.
To `CC(C)c1ccccc1-c1ncc2c(n1)n(Cc1ccc(-c3cccc4ncnn34)cc1)c(=O)n2C` [Compound I-266, 9-(4-([1,2,4]triazolo[1,5-a]pyridin-5-yl)benzyl)-2-(2-isopropylphenyl)-7-methyl-7,9-dihydro-8H-purin-8-one] belongs 0.05 to 0.2 µM; to `Cc1cc(N2CCC2)nn1-c1ccc(Cn2c(=O)[nH]c3cnc(-c4cccnc4C(C)C)nc32)cc1` [Compound I-68, 9-(4-(3-(azetidin-1-yl)-5-methyl-1H-pyrazol-1-yl)benzyl)-2-(2-isopropylpyridin-3-yl)-7,9-dihydro-8H-purin-8-one], 0.05 to 0.2 µM.
Take `Cn1cc(C(F)(F)F)nc1-c1ccc(Cn2c(=O)[nH]c3cnc(-c4cccnc4N4CCOCC4)nc32)cc1` [Compound I-333, 9-(4-(1-methyl-4-(trifluoromethyl)-1H-imidazol-2-yl)benzyl)-2-(2-morpholinopyridin-3-yl)-7,9-dihydro-8H-purin-8-one]: the IC50 was 0.05 to 0.2 µM.
The figure for `CC(C)c1c(F)cccc1-c1ncc2[nH]c(=O)n(Cc3ccc(-c4nc(C(F)(F)F)cn4C)cc3)c2n1` [Compound I-193, 2-(3-fluoro-2-isopropylphenyl)-9-(4-(1-methyl-4-(trifluoromethyl)-1H-imidazol-2-yl)benzyl)-7,9-dihydro-8H-purin-8-one] is less than 0.05 µM.
The figure for `CC(C)c1ccccc1-c1ncc2[nH]c(=O)n(Cc3ccc(C(=O)N(C)CC(=O)N(C)C)cc3)c2n1` [Compound I-380, N-(2-(dimethylamino)-2-oxoethyl)-4-((2-(2-isopropylphenyl)-8-oxo-7,8-dihydro-9H-purin-9-yl)methyl)-N-methylbenzamide] is 0.05 to 0.2 µM; for `CC(C)c1ccccc1-c1ncc2[nH]c(=O)n([C@@H](C)c3ccc(-n4nccn4)cc3)c2n1` [Compound I-141, (S)-9-(1-(4-(2H-1,2,3-triazol-2-yl)phenyl)ethyl)-2-(2-isopropylphenyl)-7,9-dihydro-8H-purin-8-one] it is 0.2 to 2 µM.
The figure for `CC(C)c1cnccc1-c1ncc2c(n1)n(Cc1ccc(-n3cccn3)cc1)c(=O)n2C` [Compound I-516, 9-(4-(1H-Pyrazol-1-yl)benzyl)-2-(3-isopropylpyridin-4-yl)-7-methyl-7,9-dihydro-8H-purin-8-one] is greater than 2 µM; for `Cn1cc(C(F)(F)F)nc1-c1ccc(Cn2c(=O)[nH]c3cnc(-c4cccnc4C4CC4)nc32)cc1` [Compound I-30, 2-(2-cyclopropylpyridin-3-yl)-9-(4-(1-methyl-4-(trifluoromethyl)-1H-imidazol-2-yl)benzyl)-7,9-dihydro-8H-purin-8-one] it is less than 0.05 µM.
Compound `CC(C)c1ccccc1-c1ncc2c(n1)n(Cc1cccc(OC3CCC3)c1)c(=O)n2C` [Compound I-246, 9-(3-cyclobutoxybenzyl)-2-(2-isopropylphenyl)-7-methyl-7,9-dihydro-8H-purin-8-one] came in with an IC50 greater than 2 µM.
To `CC(C)c1ccccc1-c1ncc2[nH]c(=O)n(Cc3ccc(-n4cccn4)cc3Cl)c2n1` [Compound I-162, 9-(2-chloro-4-(1H-pyrazol-1-yl)benzyl)-2-(2-isopropylphenyl)-7,9-dihydro-8H-purin-8-one] belongs 0.05 to 0.2 µM.
The figure for `Cc1cc(C(F)(F)F)n(-c2ccc(Cn3c(=O)[nH]c4cnc(-c5ccccc5C(C)C)nc43)cc2)n1` [Compound I-195, 2-(2-isopropylphenyl)-9-(4-(3-methyl-5-(trifluoromethyl)-1H-pyrazol-1-yl)benzyl)-7,9-dihydro-8H-purin-8-one] is less than 0.05 µM; for `CC(C)c1ccccc1-c1ncc2c(n1)n(Cc1ccc(OC3CCOCC3)cc1)c(=O)n2C` [Compound I-238, 2-(2-isopropylphenyl)-7-methyl-9-(4-((tetrahydro-2H-pyran-4-yl)oxy)benzyl)-7,9-dihydro-8H-purin-8-one] it is 0.2 to 2 µM; for `Cc1nc(-c2ccc(Cn3c(=O)[nH]c4cnc(-c5ccccc5C(C)C)nc43)cc2)n(C)n1` [Compound I-296, 9-(4-(1,3-dimethyl-1H-1,2,4-triazol-5-yl)benzyl)-2-(2-isopropylphenyl)-7,9-dihydro-8H-purin-8-one] it is less than 0.05 µM.
The figure for `COCCOc1ccccc1-c1ncc2[nH]c(=O)n(Cc3ccc(-n4cccn4)cc3)c2n1` [Compound I-20, 9-(4-(1H-pyrazol-1-yl)benzyl)-2-(2-(2-methoxyethoxy)phenyl)-7,9-dihydro-8H-purin-8-one] is 0.2 to 2 µM; for `CC(C)c1ncccc1-c1ncc2[nH]c(=O)n(Cc3ccc(-n4nccn4)cc3)c2n1` [Compound I-3, 9-(4-(2H-1,2,3-triazol-2-yl)benzyl)-2-(2-isopropylpyridin-3-yl)-7,9-dihydro-8H-purin-8-one] it is 0.2 to 2 µM; for `Cn1cc(C(F)(F)F)nc1-c1ccc(Cn2c(=O)n(C)c3cnc(-c4cccnc4OCC(F)(F)F)nc32)cc1` [Compound I-50, 7-methyl-9-(4-(1-methyl-4-(trifluoromethyl)-1H-imidazol-2-yl)benzyl)-2-(2-(2,2,2-trifluoroethoxy)pyridin-3-yl)-7,9-dihydro-8H-purin-8-one] it is less than 0.05 µM.
In the case of `CC(C)c1ncccc1-c1ncc2c(n1)n(Cc1cc(F)c(-c3nc(C(F)(F)F)cn3C)c(F)c1)c(=O)n2C` [Compound I-125, 9-(3,5-difluoro-4-(1-methyl-4-(trifluoromethyl)-1H-imidazol-2-yl)benzyl)-2-(2-isopropylpyridin-3-yl)-7-methyl-7,9-dihydro-8H-purin-8-one], the IC50 is 0.05 to 0.2 µM.
To `COCCN(C(=O)c1ccc(Cn2c(=O)[nH]c3cnc(-c4ccccc4C(C)C)nc32)cc1)C(C)C` [Compound I-370, N-isopropyl-4-((2-(2-isopropylphenyl)-8-oxo-7,8-dihydro-9H-purin-9-yl)methyl)-N-(2-methoxyethyl)benzamide] belongs 0.05 to 0.2 µM.
